This note sets out measurements from US11866416B2, “Streptococcus mutans glucosyl transferase inhibitors for dental caries therapy” (UAB Research Foundation, priority 2018, dated 2024).

One series has as its system S. gordonii. Kind of series: Growth of commensal S. gordonii. In kind it is cell-based, Streptococcus gordonii. On the procedure:
Cell viability of S. mutans, S. gordonii, S. sanguinis, Aggregatibacter actinomycetemcomitans and Actinomyces. […] The number of colony-forming units (CFU) per milliliter of each sample treated with selected compounds at different concentrations was enumerated after incubation for 24 h at 37° C. and compared to the values obtained from the DMSO control group. Overnight broth cultures were transferred by 1:50 dilutions into fresh THB medium and were allowed to grow until mid-exponential phase (OD470 nm 0.6) before transfer to 96-well plates containing desired concentration of the compound. After 16 h incubation, bacterial growth was measured at OD470, and normalized to the DMSO control (100%).
Cell viability of S. mutans and commensal S. gordonii and S. sanguinis. Effects of lead small molecules on cell viability were examined. The number of colony-forming units (CFU) per milliliter for each compound at different concentrations was determined after incubation for 24 h at 37° C. and compared to the values obtained from the DMSO control group.
Cell viability of S. mutans and commensal S. gordonii and S. sanguinis. […] DMSO served as a control group and provided a relative comparison for the number of colony-forming units (CFU) per milliliter for each compound at different concentrations was determined after incubation for 24 h at 37° C. The final concentration of DMSO used in the assays was 1%.

The next series addresses GtfC catalytic domain (Streptococcus mutans serotype c (strain ATCC 700610 / UA159), UniProt P13470). Kind of series: OctetRed96 binding kinetics, GtfC. The source says: (§1) To determine if the inhibition is attributed by the binding of the lead compound to the enzymes, the OctetRed96 system was used to characterize protein-small molecule binding kinetics. The his-tagged catalytic domains of GtfB and GtC were immobilized separately onto an anti-penta-HIS (HIS1K) biosensor which consists of high affinity, high specificity penta-his antibody pre-immobilized on a fiber optic biosensor. This sensor was then exposed to varying concentrations of #G43.
Expression and purification of GtfB and GtfC catalytic domains. The DNA fragment coding for either GtfB catalytic (residues 268 aa-1074 aa) or GtfC-catalytic (residues 295 aa-1103 aa) was PCR amplified with primer sets of GtfB-BamH1-F and GtfB-Xho1-R, GtfC-BamH1-F and GtfC-Xhol1-R respectively using S. mutans genomic DNA as a template. Each amplified fragment was cloned into pET-sumo vector respectively and transformed in Escherichia coli BL21(DE3). […]
Octet Red analysis. […] The rate constant, KD, was determined using the Octet® Red96 system (ForteBio, Menlo Park, Calif.). […] The proteins were captured on dip-and-read Anti-Penta-HIS (HIS1K) Biosensor. […] The binding of #G43 at 3-fold serial dilutions in phosphate buffer from 200, 66.6, 22.2, 7.4, 2.5 to 0 μM was assessed. […]
OctetRed analysis. […] Sensorgrams and the accuracy of the analysis was calculated using the ForteBio OctetRed analysis software (ForteBio, Menlo Park, Calif.).

Another series relates to S. mutans UA159. In words: Rat model of dental caries. Conditions: for bacterial colonization versus control group / body weight over the course of the study / buccal, sulcal, and proximal surface caries scores: 100 μM topically twice daily for 4 weeks; for oral tissue (mucosal and gingival tissues) at sacrifice, treated versus non-treated: 100 μM twice daily for 4 weeks. As to the method: Rat model of dental caries. S. mutans in vivo colonization and virulence were evaluated using a rat model of dental caries as previously described (Crowley, P. J., Brady, L. J., Michalek, S. M. & Bleiweis, A. S. Virulence of a spaP Mutant of Streptococcus mutans in a Gnotobiotic Rat Model. Infection and Immunity 67, 1201-1206 (1999)). […] Rats were then infected with S. mutans UA159 for three consecutive days and provided a caries-promoting Teklad Diet 305 containing 5% sucrose (Harlan Laboratories, Inc., Indianapolis, IN.) and sterile drinking water ad libitum. One group of rats was then treated with vehicle control while another group was topically treated with the lead compound at 100 μM twice daily for 4 weeks beginning 10 days post infection. Following each treatment, drinking water was withheld for 60 min. Animals were weighed at weaning and at the termination of the experiment. The animals were euthanized, their mandibles excised for microbiological analysis of plaque samples on MS agar plates and BAP and for scoring of caries by the method of Keyes (Keyes, P. H. Dental caries in the molar teeth of rats. II. A method for diagnosing and scoring several types of lesions simultaneously. Journal of dental research 37, 1088-1099 (1958)). All experimental protocols were approved by University of Alabama at Birmingham Institutional Animal Care and Use Committee. The methods were carried out in accordance with the relevant guidelines and regulations.
Dental caries rat model. […] At the age of 20 days, rat pups were removed from isolators and randomly assigned into five groups. […] Rats were then infected with S. mutans UA159 for three consecutive days and provided a caries-promoting Diet 305, which contains 5% sucrose (TD.80406, diet with 62% corn starch, Harlan Laboratories, Madison, Wis.) and sterile drinking water ad libitum. The rats were then treated with the stilbene, water, or not treated respective of their study group as described above at 100 μM twice daily for 4 weeks beginning 10 days post infection. Drinking water was withheld for one hour after each treatment. Rats were weighed at weaning and after 45 days at the termination of the experiment. The animals were euthanized, their mandibles excised for microbiological analysis of plaque samples on MS agar plates and BAP and for scoring of caries by the method of Keyes. All experimental protocols were approved by the University of Alabama at Birmingham Institutional Animal Care and Use Committee and in accordance with the relevant guidelines and regulations.

For the next series, the target named is GtfB catalytic domain (Streptococcus mutans serotype c (strain ATCC 700610 / UA159), UniProt P08987). Kind of series: OctetRed96 binding kinetics, GtfB. Conditions: 1:1 binding model.
Source text: as §1
Expression and purification of GtfB and GtfC catalytic domains. The DNA fragment coding for either GtfB catalytic (residues 268 aa-1074 aa) or GtfC-catalytic (residues 295 aa-1103 aa) was PCR amplified with primer sets of GtfB-BamH1-F and GtfB-Xho1-R, GtfC-BamH1-F and GtfC-Xhol1-R respectively using S. mutans genomic DNA as a template. Each amplified fragment was cloned into pET-sumo vector respectively and transformed in Escherichia coli BL21(DE3). The recombinant strain grown to OD600=0.8 in LB medium was induced with 0.1 mM IPTG at 18° C. overnight. Cell lysates prepared form the overnight grown E. coli cells were subjected to protein purification using HiTrap™ Column (Ni^2+ affinity) followed by gel filtration experiments as described (Zhu, F. et al. Structural and functional analysis of a new subfamily of glycosyltransferases required for glycosylation of serine-rich streptococcal adhesins. The Journal of biological chemistry 286, 27048-27057, doi:10.1074/jbc.M110.208629 (2011); Zhang, H. et al. The highly conserved domain of unknown function 1792 has a distinct glycosyltransferase fold. Nature communications 5, 4339, doi:10.1038/ncomms5339 (2014)).
Octet Red analysis. Octet full kinetic binding analysis was performed for binding of #G43 to GtfB and GtfC. The rate constant, KD, was determined using the Octet® Red96 system (ForteBio, Menlo Park, Calif.). Phosphate buffer with 3.5% (w/v) DMSO was used. The proteins were captured on dip-and-read Anti-Penta-HIS (HIS1K) Biosensor. These consist of high affinity, high specificity Penta-His antibody from Qiagen pre-immobilized on a fiber optic biosensor. The binding of #G43 at 3-fold serial dilutions in phosphate buffer from 200, 66.6, 22.2, 7.4, 2.5 to 0 μM was assessed. The ForteBio Octet analysis software (ForteBio, Menlo Park, Calif.) was used to generate the sensorgram and the accuracy of the analysis.
OctetRed analysis. […] GtfC and GtfB were purified. The Octet® Red96 system (ForteBio, Menlo Park, Calif.) was used to determine the rate constant, KD. […] Sensorgrams and the accuracy of the analysis was calculated using the ForteBio OctetRed analysis software (ForteBio, Menlo Park, Calif.).

Chain of GtfB catalytic domain (P08987 268-1074 limits assumed): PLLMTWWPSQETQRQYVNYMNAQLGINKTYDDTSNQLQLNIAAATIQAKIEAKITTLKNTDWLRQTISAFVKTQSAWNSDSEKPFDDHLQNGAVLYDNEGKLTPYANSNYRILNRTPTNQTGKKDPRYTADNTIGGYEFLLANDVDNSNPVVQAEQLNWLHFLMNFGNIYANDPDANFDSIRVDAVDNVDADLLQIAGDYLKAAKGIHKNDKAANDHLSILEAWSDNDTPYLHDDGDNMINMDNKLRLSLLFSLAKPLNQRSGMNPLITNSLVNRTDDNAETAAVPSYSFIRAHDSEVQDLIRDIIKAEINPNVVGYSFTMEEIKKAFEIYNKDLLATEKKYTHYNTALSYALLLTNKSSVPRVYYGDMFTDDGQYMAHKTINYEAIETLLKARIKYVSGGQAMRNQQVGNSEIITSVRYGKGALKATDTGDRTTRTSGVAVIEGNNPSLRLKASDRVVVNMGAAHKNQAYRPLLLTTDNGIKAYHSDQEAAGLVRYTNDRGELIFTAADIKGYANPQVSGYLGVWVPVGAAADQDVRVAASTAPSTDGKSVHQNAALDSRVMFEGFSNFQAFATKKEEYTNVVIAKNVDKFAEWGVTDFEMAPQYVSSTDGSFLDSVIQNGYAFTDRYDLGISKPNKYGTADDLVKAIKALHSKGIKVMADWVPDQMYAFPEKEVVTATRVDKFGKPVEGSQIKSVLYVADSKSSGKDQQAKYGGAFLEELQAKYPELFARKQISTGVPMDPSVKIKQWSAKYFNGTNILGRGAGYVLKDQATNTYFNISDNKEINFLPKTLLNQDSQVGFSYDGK
Chain of GtfC catalytic domain (P13470 295-1103 limits assumed): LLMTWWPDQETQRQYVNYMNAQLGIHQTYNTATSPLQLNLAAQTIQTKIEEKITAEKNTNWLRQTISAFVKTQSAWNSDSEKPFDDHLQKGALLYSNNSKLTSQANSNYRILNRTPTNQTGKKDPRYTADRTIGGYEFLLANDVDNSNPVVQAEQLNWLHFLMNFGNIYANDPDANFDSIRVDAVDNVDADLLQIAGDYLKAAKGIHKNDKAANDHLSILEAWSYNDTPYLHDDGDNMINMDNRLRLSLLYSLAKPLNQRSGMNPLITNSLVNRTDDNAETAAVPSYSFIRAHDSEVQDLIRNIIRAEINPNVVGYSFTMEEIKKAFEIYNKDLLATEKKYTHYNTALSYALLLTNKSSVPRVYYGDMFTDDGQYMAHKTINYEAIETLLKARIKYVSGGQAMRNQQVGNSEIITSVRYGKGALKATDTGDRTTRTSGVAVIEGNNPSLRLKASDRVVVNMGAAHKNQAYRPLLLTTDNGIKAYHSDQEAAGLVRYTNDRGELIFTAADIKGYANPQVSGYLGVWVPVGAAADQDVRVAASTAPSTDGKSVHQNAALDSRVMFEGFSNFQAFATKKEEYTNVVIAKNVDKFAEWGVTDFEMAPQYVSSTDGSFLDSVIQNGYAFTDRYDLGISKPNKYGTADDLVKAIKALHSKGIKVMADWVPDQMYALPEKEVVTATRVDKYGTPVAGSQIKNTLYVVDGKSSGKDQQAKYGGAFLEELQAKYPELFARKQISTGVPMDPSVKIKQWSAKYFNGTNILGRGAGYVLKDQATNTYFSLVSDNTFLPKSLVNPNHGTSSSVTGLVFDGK

As to `NC(=O)c1ccccc1NC(=O)c1cc2cc([N+](=O)[O-])ccc2s1` [#G43], the “effect on S. gordonii growth” value with S. gordonii (200 μM, OD470) is given as “did not have any effect on bacterial growth”. Also, on GtfC catalytic domain (1:1 binding model), the Kd (usually the concentration at which binding is half-saturated) stood at 0.0469 µM. Besides, in the series with S. mutans UA159, the “bacterial colonization versus control group” value was “did not reach the statistically significant difference”; the “body weight over the course of the study” value is “did not lose weight”; the “buccal, sulcal, and proximal surface caries scores” value (“buccal, sulcal” for short) was “significantly reduced”. At GtfB catalytic domain, binding was characterised by a dissociation constant (Kd) of 3.7 µM.
With `Oc1cc(O)cc(/C=C/c2ccc(O)c(O)c2)c1` [Piceatannol], in the series on S. gordonii (400 μM), the “decrease of S. gordonii cell density” value is listed as 15-18%. In addition, the inhibition at 52 µM in the series with S. gordonii (Streptococcus gordonii, at 52 μM, read-out: growth of S. gordonii inhibited) is < 10%. Moreover, in the series on S. mutans UA159, the “bacterial colonization versus control group” value was “not statistically significant”; the “body weight over the course of the study” value is given as “did not lose weight”; the “buccal, sulcal” value is on record as “significant reduction”; the “oral tissue (mucosal and gingival tissues) at sacrifice, treated versus non-treated” value was “no obvious differences”. The Kd at GtfB catalytic domain came out at 14.6 µM.
`Oc1ccc(/C=C/c2cc(O)cc(O)c2)cc1` [Resveratrol, reference compound] gave a Kd on GtfC catalytic domain (stilbenes, 1:1 binding mode) of 510 µM. Also, in the series with S. mutans UA159, the “bacterial colonization versus control group” value is “not statistically significant”; the “body weight over the course of the study” value was “did not lose weight”; the “buccal, sulcal” value was “significant reduction”; the “oral tissue (mucosal and gingival tissues) at sacrifice, treated versus non-treated” value is listed as “no obvious differences”. At GtfB catalytic domain, the Kd turned out to be 144 µM.
